This passage reports T/C results from PubChem BioAssay AID330 (DTP/NCI, 2004).

Values joined by “and” are separate entries in the source; they are usually repeats but may differ in a detail not shown here. Identical values can stand only once. Toxic doses and inconclusive results are not listed.

For the assay, the system named is P388 leukemia ip, CD2F1 mice, survival T/C. Description: NCI In Vivo Anticancer Drug Screen. Data for tumor model P388 Leukemia (intraperitoneal) in CD2F1 (CDF1) mice. The settings on record: endpoint: median survival time, higher = longer survival. The method in brief:
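Mice carrying the transplanted tumor received test compound or vehicle. Survival was recorded in each group, and the value is the treated-group measurement divided by that of the vehicle-treated control group.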

[1] abbreviates: dose: 50.0 mg/kg/injection, schedule: Q01DX009 (ip), vehicle: saline.
[2] abbreviates: dose: 100.0 mg/kg/injection, schedule: Q01DX009 (ip), vehicle: saline.
Setting [3] is: dose: 200.0 mg/kg/injection, schedule: Q01DX009 (ip), vehicle: saline.
Setting [4] is: dose: 12.5 mg/kg/injection, schedule: Q01DX009 (ip), vehicle: saline with Tween-80.
[5] abbreviates: dose: 25.0 mg/kg/injection, schedule: Q01DX009 (ip), vehicle: saline with Tween-80.
The mark [6] stands for this setting: dose: 100.0 mg/kg/injection, schedule: Q01DX009 (ip), vehicle: saline with Tween-80.
The mark [7] stands for this setting: dose: 200.0 mg/kg/injection, schedule: Q01DX009 (ip), vehicle: saline with Tween-80.
Where [8] appears, read: dose: 50.0 mg/kg/injection, schedule: Q01DX009 (ip), vehicle: Klucel (hydroxypropylcellulose) (HPC).
[9] abbreviates: dose: 100.0 mg/kg/injection, schedule: Q01DX009 (ip), vehicle: Klucel (hydroxypropylcellulose) (HPC).
Setting [10] is: dose: 200.0 mg/kg/injection, schedule: Q01DX009 (ip), vehicle: Klucel (hydroxypropylcellulose) (HPC).
The mark [11] stands for this setting: dose: 100.0 mg/kg/injection, schedule: Q01DX001 (ip), vehicle: saline with Tween-80.
The mark [12] stands for this setting: dose: 200.0 mg/kg/injection, schedule: Q01DX001 (ip), vehicle: saline with Tween-80.
[13] abbreviates: dose: 25.0 mg/kg/injection, schedule: Q01DX005 (ip), vehicle: saline with Tween-80.
[14] abbreviates: dose: 50.0 mg/kg/injection, schedule: Q01DX005 (ip), vehicle: saline with Tween-80.
The mark [15] stands for this setting: dose: 50.0 mg/kg/injection, schedule: Q01DX005 (ip), vehicle: Klucel (hydroxypropylcellulose) (HPC).
[16] abbreviates: dose: 100.0 mg/kg/injection, schedule: Q01DX005 (ip), vehicle: Klucel (hydroxypropylcellulose) (HPC).
[17] abbreviates: dose: 200.0 mg/kg/injection, schedule: Q01DX005 (ip), vehicle: Klucel (hydroxypropylcellulose) (HPC).
[18] abbreviates: dose: 50.0 mg/kg/injection, schedule: Q01DX009 (ip), vehicle: saline with Tween-80.
Where [19] appears, read: dose: 25.0 mg/kg/injection, schedule: Q01DX009 (ip), vehicle: saline.
Setting [20] is: dose: 100.0 mg/kg/injection, schedule: Q01DX005 (ip), vehicle: saline with Tween-80.
Setting [21] is: dose: 200.0 mg/kg/injection, schedule: Q01DX005 (ip), vehicle: saline with Tween-80.
Setting [22] is: dose: 6.25 mg/kg/injection, schedule: Q01DX009 (ip), vehicle: saline.
Setting [23] is: dose: 12.5 mg/kg/injection, schedule: Q01DX009 (ip), vehicle: saline.

On to `Cc1ccc(C2(C)C(=O)c3ccccc3C2=O)cc1`, for which the T/C was 101 % of control (dose: 100.0 mg/kg/injection, schedule: Q04DX002 (ip), vehicle: saline); 100 % of control (dose: 200.0 mg/kg/injection, schedule: Q04DX002 (ip), vehicle: saline); 107 % of control (dose: 400.0 mg/kg/injection, schedule: Q04DX002 (ip), vehicle: saline).
Take `CC(N=c1ccccn1O)C(O)c1ccccc1` (configuration not stated): the T/C is, setting by setting: under setting [1], 101 % of control; under setting [2], 97 % of control; under setting [3], 97 % of control.
`O=C(O)CN(CC(=O)O)Cc1cc2c(c(O)c1O)C(=O)c1ccccc1C2=O`: the T/C reads like this: (dose: 6.25 mg/kg/injection, schedule: Q01DX009 (ip), vehicle: saline with Tween-80) 97 % of control; under setting [4], 101 % of control; under setting [5], 93 % of control; under setting [6], 100 % of control; under setting [7], 100 % of control.
For `CN1CCN(CC(O)Cn2c(=O)c3c(nc(N4CCN(C)CC4)n3C)n(C)c2=O)CC1` (configuration not stated), the T/C under setting [8] was 87 % of control, the T/C under setting [9] is 102 % of control and the T/C under setting [10] was 105 % of control.
In the case of `Nc1cccc(OCCOc2cccc(S(=O)(=O)F)c2)c1`, the T/C reads like this: (dose: 50.0 mg/kg/injection, schedule: Q01DX001 (ip), vehicle: saline with Tween-80) 109 % of control; under setting [11], 100 % of control; under setting [12], 100 % of control.
Consider `CC(C)(C)OC(=O)NC(CCCCNC(=O)OCc1ccccc1)C(=O)NC(CCCCNC(=O)OCc1ccccc1)C(=O)NC(CCCCNC(=O)OCc1ccccc1)C(=O)OCc1ccccc1` (configuration not stated), for which the T/C (dose: 12.5 mg/kg/injection, schedule: Q01DX005 (ip), vehicle: saline with Tween-80) is 100 % of control; the T/C under setting [13] is 97 % of control; the T/C under setting [14] was 100 % of control.
On to `ClCCN(CCCCCCN(CCCl)c1ccccc1)c1ccccc1`, for which the T/C runs as follows: under setting [8], 109 % of control; under setting [9], 109 % of control; under setting [10], 108 % of control.
As to `CCOC(=O)c1cccc(N)c1C(=O)OCCN(CC)CC`, the T/C by setting is: under setting [15], 93 % of control; under setting [16], 87 % of control; under setting [17], 99 % of control.
As to `CC1=CCCC2C1(C)CCC(C)C2(C)Cc1cc(O)ccc1O` (configuration not stated), the T/C under setting [4] is 100 % of control; the T/C under setting [5] is 103 % of control; the T/C under setting [18] was 107 % of control; the T/C under setting [11] was 97 % of control; the T/C under setting [6] was 94 % of control; the T/C under setting [12] was 99 % of control. Besides, the T/C (dose: 400.0 mg/kg/injection, schedule: Q01DX001 (ip), vehicle: saline with Tween-80) is 88 % of control.
With `CCOCN(COCC)c1ccc(Cl)cc1`, the T/C under setting [7] was 164 % of control.
On to `CCC(C(=O)O)C(=O)O.[NH-]CC1CCCC[N-]1.[Pt+2]`, for which the T/C runs as follows: (dose: 25.0 mg/kg/injection, schedule: Q01DX005 (ip), vehicle: saline) 161 % of control; under setting [19], 161 % of control; (dose: 50.0 mg/kg/injection, schedule: Q01DX005 (ip), vehicle: saline) 217 % of control; under setting [18], 202 % of control; under setting [1], 189 % of control; (dose: 100.0 mg/kg/injection, schedule: Q01DX005 (ip), vehicle: saline) 243 % of control and 267 % of control. The T/C by setting is: under setting [2], 252 % of control; (dose: 125.0 mg/kg/injection, schedule: Q01DX001 (ip), vehicle: saline) 161 % of control; (dose: 250.0 mg/kg/injection, schedule: Q01DX001 (ip), vehicle: saline) 191 % of control; (dose: 500.0 mg/kg/injection, schedule: Q01DX001 (ip), vehicle: saline) 173 % of control and 198 % of control.
For the molecule `CCOc1ccccc1NC(=O)CC(=O)N1N=C(C)C(N=Nc2ccccc2C(=O)O)C1=O` (configuration not stated), the T/C is, setting by setting: under setting [14], 108 % of control; under setting [20], 104 % of control; under setting [21], 92 % of control.
On the same counts, the results for `COC(=O)C1=C(C(=O)OC)C(c2ccccc2)N(C)O1` (configuration not stated) are 103 % of control, 98 % of control and 106 % of control.
On to `Nc1cc2[nH]c(=O)oc2cc1Cl`, for which the T/C is, setting by setting: under setting [15], 94 % of control; under setting [16], 100 % of control; under setting [17], 94 % of control.
As to `N#C/C(=C\c1c2ccccc2c(Cl)c2ccccc12)C(N)=S`, the T/C under setting [22] was 90 % of control; the T/C under setting [23] was 88 % of control; the T/C under setting [19] was 90 % of control; the T/C under setting [1] was 92 % of control; the T/C under setting [2] is 97 % of control; the T/C under setting [3] is 103 % of control.
In the case of `CCCCCCCCCC1=C(C#N)C(=O)OCCN1C`, the T/C by setting is: (dose: 60.0 mg/kg/injection, schedule: Q01DX005 (ip), vehicle: saline with Tween-80) 92 % of control; (dose: 120.0 mg/kg/injection, schedule: Q01DX005 (ip), vehicle: saline with Tween-80) 93 % of control.
In the case of `O=[N+]([O-])c1ccccc1C=Nc1ccc2nc(SCc3ccccc3)sc2c1`, the T/C runs as follows: (dose: 100.0 mg/kg/injection, schedule: Q04DX003 (ip), vehicle: Klucel (hydroxypropylcellulose) (HPC)) 100 % of control; (dose: 200.0 mg/kg/injection, schedule: Q04DX003 (ip), vehicle: Klucel (hydroxypropylcellulose) (HPC)) 95 % of control; (dose: 400.0 mg/kg/injection, schedule: Q04DX003 (ip), vehicle: Klucel (hydroxypropylcellulose) (HPC)) 89 % of control.
On to `Cc1nc2cc(C)n3c(C)nnc3n2n1`, for which the T/C is, setting by setting: under setting [14], 105 % of control; under setting [20], 100 % of control; under setting [21], 100 % of control.
For `[N-]=[N+]=NC1(N=[N+]=[N-])C(=O)Nc2ccccc2C1=O` (configuration not stated), the T/C runs as follows: under setting [15], 93 % of control; under setting [16], 103 % of control; under setting [17], 107 % of control.
Regarding `CCCCN(CCCC)CC(O)c1c(Br)c2ccccc2c2ccccc12` (configuration not stated), the T/C by setting is: under setting [4], 107 % of control; under setting [5], 109 % of control; under setting [18], 124 % of control.
As to `CN(C)CCNc1ccc(CO)c2sc3ccc(O)cc3c(=O)c12`, the T/C is 160 % of control and 162 % of control under setting [13]; 173 % of control and 175 % of control under setting [14]; 190 % of control and 194 % of control under setting [20]; 222 % of control under setting [21].
On to `Cc1ncccc1[N+](=O)[O-]`, for which the T/C is, setting by setting: (dose: 12.5 mg/kg/injection, schedule: Q01DX009 (ip), vehicle: saline + Tween-80 + alcohol) 100 % of control; (dose: 25.0 mg/kg/injection, schedule: Q01DX009 (ip), vehicle: saline + Tween-80 + alcohol) 100 % of control; (dose: 50.0 mg/kg/injection, schedule: Q01DX009 (ip), vehicle: saline + Tween-80 + alcohol) 106 % of control and 93 % of control.
Regarding `C=CC(=NC(C)C)N(C)c1ccccc1`, the T/C under setting [22] is 101 % of control, the T/C under setting [23] is 96 % of control and the T/C under setting [19] is 96 % of control.
As to `CCc1nc(N)nc(N)c1-c1ccc2c(c1)nnn2CCc1ccccc1`, the T/C is, setting by setting: under setting [15], 99 % of control; under setting [16], 96 % of control.
`Cc1cc(C)nc(NS(=O)(=O)c2ccc(Nc3c4ccccc4nc4c([N+](=O)[O-])cccc34)cc2)n1`: the T/C by setting is: (dose: 3.75 mg/kg/injection, schedule: Q01DX005 (ip), vehicle: saline with Tween-80) 100 % of control; (dose: 7.5 mg/kg/injection, schedule: Q01DX005 (ip), vehicle: saline with Tween-80) 100 % of control; (dose: 15.0 mg/kg/injection, schedule: Q01DX005 (ip), vehicle: saline with Tween-80) 97 % of control.
As to `Cc1cc(C)[s+]s1`, the T/C was 109 % of control (dose: 12.5 mg/kg/injection, schedule: Q01DX009 (ip), vehicle: water); 109 % of control (dose: 25.0 mg/kg/injection, schedule: Q01DX009 (ip), vehicle: water); 115 % of control (dose: 50.0 mg/kg/injection, schedule: Q01DX009 (ip), vehicle: water); 117 % of control (dose: 100.0 mg/kg/injection, schedule: Q01DX009 (ip), vehicle: water).
